# Test system: adult Blattella germanica strain PAULINIA
# Experiment: whole plant or invertebrate
# Type: in vivo
# Conditions: read-out: efficacy (mortality)
# Protocol: Blattella germanica Test (BLTTGE Surface Treatment & Contact Assay)
# Solvent: Aceton+2000 ppm rapeseed oil methyl ester (RME) In order to produce a sufficient, active ingredient containing solution it is necessary to solve the test compound in the solvent-mix (acetone at 2 mg/ml/RME 2000 ppm). This solution is pipetted onto a glazed tile and after evaporation of the acetone, adult animals of the species Blattella germanica strain PAULINIA are placed onto the dried surface. The exposure time is 30 minutes.
# Mortality in percent (%) is determined 24 hours after contact of the insects to the treated surface. 100% mortality means that all tested insects are dead, whereas 0% means that no insect died.
smiles,measurement,value
"Cc1nc([C@H](C)NC(=O)c2cc(C(F)(F)F)cc(C(F)(F)F)c2)n(-c2ccc(C(=O)N3CCOCC3)cn2)n1 [Example I-9, N-[(1S)-1-{3-methyl-1-[5-(morpholin-4-ylcarbonyl)pyridin-2-yl]-1H-1,2,4-triazol-5-yl}ethyl]-3,5-bis(trifluoromethyl)benzamide]",mortality at 20 mg/m2,80 to 100%
